US9133208B2, “Radiolabelled rotenone derivatives and their use in SPECT imaging” (priority 2011, dated 2015)

How the values were obtained:
[1] = Ex vivo biodistribution in Sprague-Dawley rats; conditions: 2 hr p.i.
Description: An amount of 0.5 mL of a 2.4 mCi/mL mixture of compounds 6-9 (Mixture A: composition comprising isomeric mixture of 12% 6 and 7 diastereomers; 88% 8 and 9 diastereomers) in 7% ethanol was diluted with 0.58 mL of 10 mM sodium acetate, pH 6.5 and 0.023 mL of 95% ethanol, to produce a 1.1 mL of a 1.1 mCi/mL solution having a value of pH of about 5. An amount of 0.8 mL of this solution (0.9 mCi) was injected through the tail veins of 14 Sprague-Dawley rats. Six of the rats were used to assess biodistribution of the mixture of compounds 6-9 after two hours, and the remaining eight rats were used to determine the biodistribution of the compounds after 24 hours. Selected organs were collected and weighed and the activity was measured for each organ with a gamma well counter using the detection range of 138-207 keV, and the measured values of activity were decay-corrected to the time of injection. The values of percentage of injected dose per gram of tissue (% ID/g) were calculated by taking the ratio of the activity in the organ over the total activity injected per gram of tissue. Uptake in the heart of the rat was confirmed by the SPECT/CT images shown in FIG. 5, in which the heart is well defined.
A biodistribution study was conducted according to the method described above using purified fractions of the mixture of isomers 6-9 (Mixture A).
FIGS. 3B-3E show HPLC chromatograms of the four separate fractions used in the biodistribution study: Fraction 1: fraction comprising 100% of Component A*; Fraction 2: fraction comprising an isomeric mixture comprising 15.2% Component A* and 84.8% Component B*; Fraction 3: fraction comprising an isomeric mixture comprising 4.4% Component A*, 4.4% Component B* and 91.2% Component C*; Fraction 4: fraction comprising an isomeric mixture comprising 1.5% Component A*, 0.8% Component B* and 97.7% Component D*.

[2] = compared with FIG. 9; cited from earlier work
[3] = Literature isolated perfused heart data of Marshall et al. 2001
Text: A slower myocardial exit is beneficial for clinical diagnostic imaging since this permits the physician to gather images over a longer period of time thereby increasing image resolution, sensitivity and quality.
Marshall et al. report slopes of 0.29 and 0.78 for the fitted linear lines to the maximal uptake data for ^99mTc-sestamibi and ^125I-rotenone, respectively. The slopes of the fitted lines to the data for ^99mTc-sestamibi and the isomers of Mixture A shown in FIG. 10 of the present application are 0.33 and 0.86, respectively. The value of the ratio of the slopes of the fitted lines for ^125I-rotenone and ^99mTc-sestamibi from Marshall et al. is 2.69, while the value of the ratio of the slopes of the fitted lines for Mixture A and ^99mTc-sestamibi shown in FIG. 10 is 2.61. […] A linear uptake of tracer with increasing flow is especially desired in a clinical setting since in patients, deficiencies in myocardial perfusion are almost exclusively detected at higher blood flow rates, i.e. during a stress test by comparison of low (ischemic) and high flow (normal) areas.

rabbit hearts = experiment: Myocardial distribution in isolated retrograde perfused (Langendorff) rabbit heart; parameters: species or system New Zealand White rabbits; conditions: for fractional appearance rates at later time points / initial peak fractional venous appearance rate: flow rate 1.7 ml/min/g LV, FIG. 9, qualitative
Description: Preparation of retrograde perfusion (Langendorff) was performed as previously described (R. C. Marshall, P. Powers-Risius, B. W. Reutter, S. E. Taylor, H. F. VanBrocklin, R. H. Huesman, T. F. Budinger J Nucl Med. 2001; 42:272-281, which is incorporated by reference herein) using hearts from 1.5-2.5 kg male New Zealand White rabbits (Charles River, Wilmington Mass.). Following an injection of heparin (5 mg/kg) and median sternotomy, hearts were excised keeping the ascending aorta and aortic branches, lungs and thymus intact. The hearts were immediately placed into an ice-cold bath containing modified Tyrode's solution ([…], 1 mM MgCl2, 28 mM NaHCO3, 0.44 mM NaH2PO4, 2.5 mM CaCl2, 6 mM KCl, 5 mM glucose, […] with 22 g/L BSA and aerated with 95% O2/5% CO2) and thymus and fatty tissue were quickly removed. The hearts were then suspended on an aortic cannula and perfused with pre-warmed modified Tyrode's buffer through a water jacketed, temperature regulated Langendorff perfusion system (Radnotti, Calif., USA) at a constant flow rate. Total time for suspension onto the Langendorff apparatus was typically 60 seconds or less. Following suspension on the aortic cannula, the remaining lung, trachea and extraneous tissues were removed.
Fluid from Thebesian circulation was drained via a polyethylene catheterized apical drain. A fluid filled latex ballon connected to a pressure transducer (Radnotti) was inserted into the left ventrical via the left atrium and mitral valve. Following excision of the right atrium, a pacing electrode (Radnotti) was placed at the level of the atria to allow controlled pacing of the heart.
Following final preparation, the left ventricular balloon was inflated to achieve an end-diastolic pressure of approximately 8-10 mmHg with a constant systolic pressure held between 60-80 mm Hg. The heart was continually perfused with modified Tyrode's solution warmed to 38° C. and was held in an enclosed chamber to maintain humidity and temperature. The heart was paced with a Grass SD9 stimulator (Harvard Apparatus, Montreal QC) at 180 beats per minute with a stimulus of 4 V delivered over 4 ms. Perfusion and ventricular pressures were monitored throughout the experiment using a BioPac data acquisition system (BioPac, Montreal QC).
Radioactivity from all samples were counted in a gamma counter and data was analyzed using Matlab software. […] Maximal uptake values were determined for ^99mTc-sestamibi and Mixture A at varying flow rates (0.35-3.1 ml/min/g LV wet weight).

rat cardiomyocytes = experiment: Cell uptake (internalization) assay with labeled rotenone derivatives; format: cell-based; conditions: 0.5 μCi tracer, time points up to 5 min
Description: An internalization assay was used to test the in vitro function of candidate perfusion tracers. In this assay, cultures of rat cardiomyocytes were plated at a density of 3-5×10^5 cells/mL into 24-well tissue culture plates. The cardiomyocytes were then incubated with 0.5 μCi of radiolabeled tracer ^99mTc-tetrofosmin (Myoview™) or [^123I] iodinated rotenone (mixture containing isomers 6-9) mixed in cell culture medium (DMEM) and incubated for up to five minutes. At different time points, the total supernatant was collected, the cells were washed twice with PBS and then exposed and lysed with 1 M NaOH for 15 min. Samples were counted in a gamma well counter and the cellular protein was determined for the lysed samples. The data was analyzed to represent the total “internalized” fraction expressed as cpm per total protein (FIG. 4).

pig heart = experiment: Uptake of radiotracers as a function of myocardial blood flow (MBF) in pig heart; format: in vivo; conditions: for myocardial flow rate at which uptake begins to level off (roll off): two hours after injection, stress and induced ischemic conditions
Text: The tissue and blood samples were weighed and measured using a gamma well counter to determine the amount of gamma radiation emitted by the I-123 radiolabel of the radio-iodinated tracers of the present invention. The measured gamma radiation in each segment represents the combined amount of gamma radiation emitted by the tracers in that segment during the resting and stressed states of the heart. The counts and the weights of the samples were also used to calculate the percentage of injected dose per gram of tissue (% ID/g). After the I-123 in the blood and tissue samples had completely decayed, both the tissue and the blood were dried in an oven at 70° C. for 48-72 h, the samples were sent for neutron activation and the gamma radiation emitted by each of the resulting radioactive [^198Au]gold-containing microspheres and [^153Sm]samarium-containing microspheres, which were embedded in the samples, were measured. Polar maps of the resting and stressed states of the isolated heart of the pig were generated using MATLAB™ to assemble the gamma measurement results in all the transected segments from the bottom (apex) to the top (AV groove) of the pig heart.
The myocardial blood flow (MBF) that was present in the tissue samples during the resting and stressed states was determined from the total amount of gamma radiation emitted from each of the radioactive gold and samarium microspheres, respectively, in the isolated transections of the heart of the pig and the dried blood sample according to the following equation: MBF=[(Reference blood sample withdrawal rate (4 mL/min)/(Weight of myocardial sample (g)]×[Isotope count (myocardial sample)/Isotope counts (reference blood sample)].
FIG. 8 illustrates a plot of uptake (percent of injected dose per gram of tissue; % ID/g) of the radiotracer compounds of the present invention as a function of the myocardial blood flow in the pig heart under stress and induced ischemic conditions as determined using the marked microspheres.

dog heart [4] = conditions: representative dog, critical LAD stenosis, intravenous adenosine; cited from earlier work
dog heart [5] = experiment: Literature tracer uptake vs microsphere flow in dog with critical LAD stenosis (Broisat et al., Glover et al.); format: in vivo
Text: The slope of a non-linear fitted line to the ^123I-ZIROT data shown in FIG. 3 of Broisat et al. is −3.59.

[6] = flow rates 0.35-3.1 ml/min/g LV wet weight

COc1cc2c(cc1OC)[C@@H]1C(=O)c3ccc4c(c3O[C@@H]1CO2)C[C@H](C(C)([123I])CO)O4 (single isomer, unassigned) [Fraction 1] showed a Blood [1] of 0.191 ± 0.040 % ID/g, a Brain [1] of 0.063 ± 0.013 % ID/g and a Femur [1] of 0.239 ± 0.083 % ID/g. For the same compound, the Heart [1] was 1.617 ± 0.335 % ID/g, the Heart/Blood ratio [1] was 8.46 ± 0.51 and the Heart/Liver ratio [1] was 1.20 ± 0.35. It also gave a Heart/Lung ratio [1] of 4.54 ± 0.59, an Intestine [1] of 0.787 ± 0.186 % ID/g and a Kidney [1] of 0.634 ± 0.099 % ID/g. It also gave a Liver [1] of 1.363 ± 0.101 % ID/g, a Lung [1] of 0.357 ± 0.059 % ID/g and a Muscle [1] of 0.369 ± 0.117 % ID/g. The Spleen [1] was 0.177 ± 0.031 % ID/g, the Stomach [1] was 1.628 ± 0.837 % ID/g and the Testis [1] was 0.128 ± 0.017 % ID/g. The Thyroid [1] was 0.826 ± 0.191 % ID/g and the Urine [1] was 0.528 ± 0.134 % ID/g.
For COc1cc2c(cc1OC)C1C(=O)c3ccc4c(c3OC1CO2)CC(/C(C)=C\[125I])O4 (stereo not shown) [^125I-rotenone, 7′-Z-[^125I]iodorotenone], the “venous effluent rate at the later portions of the curve (FIG. 1 of Marshall et al.)” value [2] is given as “higher venous effluent rate relative to the isomers of Mixture A” and the “ratio of the slopes of the fitted lines vs ^99mTc-sestamibi (Marshall et al.)” value [3] is given as 2.69.
With [201Tl] [^201Tl, ^201Thallium] the “fractional appearance rates at later time points” value (rabbit hearts) was “higher fractional appearance rates” and the “initial peak fractional venous appearance rate” value (rabbit hearts) was “lower fractional venous appearance rates”.
For “Technetium (^99mTc) tetrofosmin [^99mTc-tetrofosmin]”, the “cellular internalization over time (cpm per total protein)” value (rat cardiomyocytes) was “evident at 15 s but a gradual increase was seen up to 5 min” and the “myocardial flow rate at which uptake begins to level off (roll off)” value (pig heart) was 2 mL/min/g.
For [C-]#[N+]CC(C)(C)OC.[C-]#[N+]CC(C)(C)OC.[C-]#[N+]CC(C)(C)OC.[C-]#[N+]CC(C)(C)OC.[C-]#[N+]CC(C)(C)OC.[C-]#[N+]CC(C)(C)OC.[Tc] [^99mTc-sestamibi], the “slope of non-linear fitted line, activity (% normal) vs microsphere flow (FIG. 4 of Glover et al.)” value (dog heart [4]) is given as −143, the “fractional appearance rates at later time points” value (rabbit hearts) is given as “higher fractional appearance rates” and the “initial peak fractional venous appearance rate” value (rabbit hearts) is given as “lower fractional venous appearance rates”. For the same compound, the “intercept of linear regression, maximum net uptake vs flow” value (rabbit hearts; [6]) was 0.14, the “slope of linear regression, maximum net uptake vs flow (FIG. 10)” value (rabbit hearts; [6]) was 0.33 and the “slope of the non-linear fitted line, uptake (% ID/g) vs MBF (FIG. 8)” value (pig heart; pig hearts) was −1.21. The “myocardial flow rate at which uptake begins to level off (roll off)” value (pig heart) was 1.5 mL/min/g and the “standardized slope (Glover et al. slope divided by 100)” value (dog heart [5]; representative dog, critical LAD stenosis, intravenous adenosine) was −1.43.
For COc1cc2c(cc1OC)[C@@H]1C(=O)c3ccc4c(c3O[C@@H]1CO2)C[C@H](C(C)([123I])CO)O4 (single isomer, unassigned) [B*], the Heart [1] was “slightly lower”, the Heart/Liver ratio [1] was “relatively higher” and the Intestine [1] was “significantly higher than others”. For the same compound, the Liver [1] was “much lower”.
For COc1cc2c(cc1OC)C1C(=O)c3ccc4c(c3OC1CO2)CC(/C(C)=C\[123I])O4 (stereo not shown) [^123I-ZIROT, 7-(Z)-[^123I]iodorotenone], the “slope of non-linear fitted line, uptake vs microsphere flow (FIG. 3 of Broisat et al.)” value (dog heart [4]) is listed as −3.59 and the “ratio of slope (Broisat et al.) to standardized ^99mTc-Sestamibi slope (Glover et al.)” value (dog heart [5]; dog literature data) is listed as 2.5.
